Assay results: US20250163048A1 (Tango Therapeutics, Inc., priority 2022, published 2025)
Where two headings read alike, the source gives them in different places.

Assays:
[1] = tested on: HAP1 MTAP-deleted cell line; experiment: SDMA in-cell western assay, HAP1 MTAP-deleted; details: for IC50 / IC90: Homo sapiens; for IC50: HAP1, read-out: Hap1 MTAP deleted IC50, SDMA in-cell western assay, HAP1 MTAP-deleted cell line; for IC90: HAP1, read-out: Hap1 MTAP deleted IC90, SDMA in-cell western assay, HAP1 MTAP-deleted cell line; for Hap1 MTAP intact/deleted ratio: IC50 ratio between HAP1 MTAP-intact and HAP1 MTAP-deleted cell line, SDMA in-cell western assay
[2] = tested on: HAP1 MTAP-intact cell line; experiment: SDMA in-cell western assay, HAP1 MTAP-intact; details: Homo sapiens
MTAP-deleted cell line = experiment: viability assay for the MTAP-deleted cell line; assay type: cell-based; details: Homo sapiens, HAP1, viability assay
[3] = HAP1, read-out: Hap1 MTAP intact IC50, SDMA in-cell western assay, HAP1 MTAP-intact cell line

Compound | IC50 [1] [nM] | IC90 [1] [nM] | IC50 [2, 3] [nM] | IC50 ([2]; HAP1, read-out: Hap1 MTAP intact IC50) [nM] | Hap1 MTAP intact/deleted ratio [1] | IC50 (MTAP-deleted cell line) [nM]
Cc1ccc2ccc([C@H]3CC[C@H](C)CN3C(=O)C(=O)Nc3cnc(N)c4cn[nH]c34)cc2n1 (racemic) [Compound 215, N-(4-Amino-1H-pyrazolo[4,3-c]pyridin-7-yl)-2-oxo-2-[rac-(2R,5S)-5-methyl-2-(2-methyl-7-quinolyl)-1-piperidyl]acetamide] | < 5 | < 75 | 5 to 50 |  | C (“C” indicates an IC50 ratio of less than 15 fold) | < 100
C[C@@H]1CN(C(=O)C(=O)Nc2cnc(N)c3cn[nH]c23)[C@@H](c2ccccc2)CC1(F)F (racemic) [Compound 216, N-(4-Amino-1H-pyrazolo[4,3-c]pyridin-7-yl)-2-oxo-2-[rac-(2R,5R)-4,4-difluoro-5-methyl-2-phenyl-1-piperidyl]acetamide] | < 5 | < 75 | 5 to 50 |  | C (“C” indicates an IC50 ratio of less than 15 fold) | < 100
C[C@H]1CC[C@H](C2(C(F)(F)F)CC2)N(C(=O)C(=O)Nc2cnc(N)c3cn[nH]c23)C1 (racemic) [Compound 226, N-(4-Amino-1H-pyrazolo[4,3-c]pyridin-7-yl)-2-oxo-2-[rac-(2R,5S)-5-methyl-2-[1-(trifluoromethyl)cyclopropyl]-1-piperidyl]acetamide] | 5 to 50 | > 125 | > 50 |  | B (“B” indicates an IC50 ratio greater than or equal to 15 fold but lower than 30 fold) | 100 to 1000
CC[C@@H]1CC[C@H](CC)N(C(=O)C(=O)Nc2cnc(N)c3cn[nH]c23)C1 (racemic) [Compound 227] | < 5 | < 75 | 5 to 50 |  | B (“B” indicates an IC50 ratio greater than or equal to 15 fold but lower than 30 fold) | < 100
CC(C)n1cc2cc([C@H]3CC[C@H](C)CN3C(=O)C(=O)Nc3cnc(N)c4cn[nH]c34)ccc2n1 (racemic) [Compound 231, N-(4-Amino-1H-pyrazolo[4,3-c]pyridin-7-yl)-2-oxo-2-[rac-(2R,5S)-2-(2-isopropylindazol-5-yl)-5-methyl-1-piperidyl]acetamide] | < 5 | < 75 | 5 to 50 |  | A (“A” indicates an IC50 ratio greater than or equal to 30 fold) | < 100
Nc1ncc(NC(=O)C(=O)N2[C@@H](c3ccccc3)CCC[C@H]2C(F)(F)F)c2[nH]ncc12 (racemic) [Compound 245, N-(4-Amino-2H-pyrazolo[4,3-c]pyridin-7-yl)-2-oxo-2-[rac-(2R,6S)-2-phenyl-6-(trifluoromethyl)-1-piperidyl]acetamide] | < 5 | < 75 | > 50 |  | A (“A” indicates an IC50 ratio greater than or equal to 30 fold) | < 100
C[C@H]1CC[C@H](c2ccnc(OC3CC3)c2)N(C(=O)C(=O)Nc2cnc(N)c3cn[nH]c23)C1 (racemic) [Compound 247, N-(4-Amino-2H-pyrazolo[4,3-c]pyridin-7-yl)-2-oxo-2-[rac-(2R,5S)-2-[2-(cyclopropoxy)-4-pyridyl]-5-methyl-1-piperidyl]acetamide] | < 5 | < 75 | 5 to 50 |  | B (“B” indicates an IC50 ratio greater than or equal to 15 fold but lower than 30 fold) | < 100
C[C@H]1CC[C@H](c2cccc3c2OCC3)N(C(=O)C(=O)Nc2cnc(N)c3cn[nH]c23)C1 (racemic) [Compound 255, N-(4-Amino-1H-pyrazolo[4,3-c]pyridin-7-yl)-2-oxo-2-[rac-(2R,5S)-2-(2,3-dihydrobenzofuran-7-yl)-5-methyl-1-piperidyl]acetamide] | < 5 | < 75 | 5 to 50 |  | B (“B” indicates an IC50 ratio greater than or equal to 15 fold but lower than 30 fold) | < 100
C[C@H]1CC[C@H](c2ccc(CCN(C)C)cc2)N(C(=O)C(=O)Nc2cnc(N)c3cn[nH]c23)C1 (racemic) [Compound 263, N-(4-Amino-2H-pyrazolo[4,3-c]pyridin-7-yl)-2-oxo-2-[rac-(2R,5S)-2-[4-[2-(dimethylamino)ethyl]phenyl]-5-methyl-1-piperidyl]acetamide] | < 5 | < 75 | 5 to 50 |  | C (“C” indicates an IC50 ratio of less than 15 fold) | < 100

Now from value to compound, other results behind:

IC50 [1] [nM] | IC90 [1] [nM] | IC50 [2, 3] [nM] | IC50 ([2]; HAP1, read-out: Hap1 MTAP intact IC50) [nM] | Compound | Hap1 MTAP intact/deleted ratio [1] | IC50 (MTAP-deleted cell line) [nM]
< 5 | < 75 | > 50 |  | C[C@H]1CC[C@H](C2(C)CC2)N(C(=O)C(=O)Nc2cnc(N)c3cn[nH]c23)C1 (racemic) [Compound 228, N-(4-Amino-1H-pyrazolo[4,3-c]pyridin-7-yl)-2-oxo-2-[rac-(2R,5S)-5-methyl-2-(1-methylcyclopropyl)-1-piperidyl]acetamide] | A (“A” indicates an IC50 ratio greater than or equal to 30 fold) | < 100
< 5 | < 75 | > 50 |  | CC[C@@H]1CC[C@@H](CC)N(C(=O)C(=O)Nc2cnc(N)c3cn[nH]c23)C1 (racemic) [Compound 233] | B (“B” indicates an IC50 ratio greater than or equal to 15 fold but lower than 30 fold) | < 100
< 5 | < 75 | 5 to 50 |  | C[C@H]1CC[C@H](c2ccc3c(c2)OCC3)N(C(=O)C(=O)Nc2cnc(N)c3cn[nH]c23)C1 (racemic) [Compound 238] | A (“A” indicates an IC50 ratio greater than or equal to 30 fold) | < 100
< 5 | < 75 | > 50 |  | Cc1cc([C@H]2CC[C@H](C)CN2C(=O)C(=O)Nc2cnc(N)c3cn[nH]c23)cnc1C (racemic) [Compound 241, N-(4-Amino-1H-pyrazolo[4,3-c]pyridin-7-yl)-2-oxo-2-[rac-(2R,5S)-2-(5,6-dimethyl-3-pyridyl)-5-methyl-1-piperidyl]acetamide] | A (“A” indicates an IC50 ratio greater than or equal to 30 fold) | < 100
< 5 | < 75 |  | > 50 | CC(C)[C@@H]1CC[C@@H](C)CN1C(=O)C(=O)Nc1cnc(N)c2cn[nH]c12 (racemic) [Compound 244, N-(4-amino-1H-pyrazolo[4,3-c]pyridin-7-yl)-2-(rac-(2S,5R)-2-isopropyl-5-methylpiperidin-1-yl)-2-oxoacetamide] |  | < 100
< 5 | < 75 | 5 to 50 |  | COc1ncc([C@H]2CC[C@H](C)CN2C(=O)C(=O)Nc2cnc(N)c3cn[nH]c23)cc1C (racemic) [Compound 246, N-(4-Amino-1H-pyrazolo[4,3-c]pyridin-7-yl)-2-oxo-2-[rac-(2R,5S)-2-(6-methoxy-5-methyl-3-pyridyl)-5-methyl-1-piperidyl]acetamide] | B (“B” indicates an IC50 ratio greater than or equal to 15 fold but lower than 30 fold) | < 100
< 5 | < 75 | < 5 |  | CCn1cc2ccc([C@H]3CC[C@H](C)CN3C(=O)C(=O)Nc3cnc(N)c4cn[nH]c34)cc2n1 (racemic) [Compound 253, N-(4-Amino-1H-pyrazolo[4,3-c]pyridin-7-yl)-2-oxo-2-[rac-(2R,5S)-2-(2-ethylindazol-6-yl)-5-methyl-1-piperidyl]acetamide] | C (“C” indicates an IC50 ratio of less than 15 fold) | < 100
5 to 50 | > 125 | > 50 |  | C[C@H]1CC[C@H](C(C)(C)C)N(C(=O)C(=O)Nc2cnc(N)c3cn[nH]c23)C1 (racemic) [Compound 254, N-(4-Amino-1H-pyrazolo[4,3-c]pyridin-7-yl)-2-oxo-2-[rac-(2R,5S)-2-tert-butyl-5-methyl-1-piperidyl]acetamide] | B (“B” indicates an IC50 ratio greater than or equal to 15 fold but lower than 30 fold) | 100 to 1000
5 to 50 | 75 to 125 | > 50 |  | C[C@@H]1CCCN(C(=O)C(=O)Nc2cnc(N)c3cn[nH]c23)[C@H]1c1ccccc1 (racemic) [Compound 258, N-(4-Amino-1H-pyrazolo[4,3-c]pyridin-7-yl)-2-(3-methyl-2-phenyl-1-piperidyl)-2-oxo-acetamide] | A (“A” indicates an IC50 ratio greater than or equal to 30 fold) | 100 to 1000
< 5 | < 75 | > 50 |  | COc1cncc([C@H]2CC[C@H](C)CN2C(=O)C(=O)Nc2cnc(N)c3cn[nH]c23)c1 (racemic) [Compound 261, N-(4-Amino-1H-pyrazolo[4,3-c]pyridin-7-yl)-2-oxo-2-[rac-(2R,5S)-2-(5-methoxy-3-pyridyl)-5-methyl-1-piperidyl]acetamide] | A (“A” indicates an IC50 ratio greater than or equal to 30 fold) | < 100
< 5 | < 75 | 5 to 50 |  | C[C@H]1CC[C@H](c2ccc3cc(Cl)cnc3c2)N(C(=O)C(=O)Nc2cnc(N)c3cn[nH]c23)C1 (racemic) [Compound 264, N-(4-Amino-1H-pyrazolo[4,3-c]pyridin-7-yl)-2-oxo-2-[rac-(2R,5S)-2-(3-chloro-7-quinolyl)-5-methyl-1-piperidyl]acetamide] | B (“B” indicates an IC50 ratio greater than or equal to 15 fold but lower than 30 fold) | < 100
